According to patent US20260363244A1, “HERBICIDAL COMPOSITIONS COMPRISING URACILS” (BASF SE, priority 2022, published 2026):
Where two headings read alike, the source gives them in different places.

Assays:
Type in all cases: in vivo
Setaria faberi = assay: greenhouse post-emergence herbicidal activity, SETFA; conditions: for % activity (solo application) / activity at 0.5 g/ha: 0.5 gai/ha; for activity at […]: 0.25 gai/ha
Method: (§1) The following examples serve to illustrate the invention.
(§2) The culture containers used were plastic pots containing loamy sand with approximately 3.0% of humus as substrate. The seeds of the test plants were sown separately for each species.
(§3) For the post-emergence treatment, the test plants were grown to a plant height of from 3 to 15 cm, depending on the plant habit, and only then treated with the active compounds which had been suspended or emulsified in water. To this end, the test plants were either sown directly, and grown in the same containers, or they were first grown separately as seedlings and transplanted into the test containers a few days prior to treatment.
(§4) Depending on the species, the plants were kept at 10-25 °C and 20-35 °C, respectively. The test period extended over 2 to 4 weeks. During this time, the plants were tended and their response to the individual treatments was evaluated.
(§5) Evaluation was carried out using a scale from 0 to 100. 100 means no emergence of the plants, or complete destruction of at least the above-ground parts, and 0 means no damage or normal course of growth. A good herbicidal activity is given at values of at least 70, and very good herbicidal activity is given at values of at least 85.
(§6) The respective stated components A and B, and if appropriate, C were formulated as a 5% by weight strength emulsion concentrate and, with addition of the amount of solvent system, introduced into the spray liquor used for applying the active compound. In the examples, the solvent used was water.
(§7) In the examples below, using the method of S. R. Colby (1967) “Calculating synergistic and antagonistic responses of herbicide combinations”, Weeds 15, p. 22ff., the value E, which is expected if the activity of the individual active compounds is only additive, was calculated.
(§8) E=X+Y−(X·Y/100) • where • X=percent activity using active compound A at an application rate a; • Y=percent activity using active compound B at an application rate b; • E=expected activity (in %) by A+B at application rates a+b.
(§9) The plants used in the greenhouse experiments were of the following species
(§10) In this context, a.i. means active ingredient, based on 100% active ingredient.
(§11) As indicated the application was post emergent (POST) at the respective growth stage (GS) of the weed.
(§12) Assessment was at the indicated days after treatment (DAT).

Commenline benghalensis = assay: greenhouse post-emergence herbicidal activity, COMBE; conditions: read-out: % activity (solo application)
Method: as §1, §2, §3, §4, §5, §6, §7, §8, §9, §10, §11, §12

Setaria viridis = assay: greenhouse post-emergence herbicidal activity, SETVI; conditions: Setaria viridis, post-emergence, read-out: % activity (solo application); for activity at 0.5 g/ha: 0.5 gai/ha; for activity at 0.2 g/ha: 0.2 gai/ha; for activity at 0.4 g/ha: 0.4 gai/ha
Method: as §1, §2, §3, §4, §5, §6, §7, §8, §9, §10, §11, §12

Eleusine indica = assay: greenhouse post-emergence herbicidal activity, ELEIN; conditions: read-out: % activity (solo application); for activity at […]: 1.6 gai/ha
Method: as §1, §2, §3, §4, §5, §6, §7, §8, §9, §10, §11, §12

Brachiaria decumbens = assay: greenhouse post-emergence herbicidal activity, BRADC; conditions: Urochloa decumbens, post-emergence, 1.6 gai/ha, read-out: % activity (solo application)
Method: as §1, §2, §3, §4, §5, §6, §7, §8, §9, §10, §11, §12

Kochia scoparia = assay: greenhouse post-emergence herbicidal activity, KCHSC; conditions: Bassia scoparia, post-emergence, read-out: % activity (solo application); for activity at 0.4 g/ha: 0.4 gai/ha; for activity at 0.8 g/ha: 0.8 gai/ha
Method: as §1, §2, §3, §4, §5, §6, §7, §8, §9, §10, §11, §12

Echinocloa crus-galli = assay: greenhouse post-emergence herbicidal activity, ECHCG; conditions: Echinochloa crus-galli, post-emergence, read-out: % activity (solo application)
Method: as §1, §2, §3, §4, §5, §6, §7, §8, §9, §10, §11, §12

Avena fatua = assay: greenhouse post-emergence herbicidal activity, AVEFA; conditions: read-out: % activity (solo application); for activity at 0.8 g/ha: 0.8 gai/ha; for activity at 0.5 g/ha: 0.5 gai/ha
Method: as §1, §2, §3, §4, §5, §6, §7, §8, §9, §10, §11, §12

Lolium multiflorum = assay: greenhouse post-emergence herbicidal activity, LOLMU; conditions: Lolium multiflorum, post-emergence, read-out: % activity (solo application); for activity at […]: 1.6 gai/ha
Method: as §1, §2, §3, §4, §5, §6, §7, §8, §9, §10, §11, §12

Digitaria sanguinales = assay: greenhouse post-emergence herbicidal activity, DIGSA; conditions: Digitaria, post-emergence, read-out: % activity (solo application)
Method: as §1, §2, §3, §4, §5, §6, §7, §8, §9, §10, §11, §12

Sorghum halepense = assay: greenhouse post-emergence herbicidal activity, SORHA; conditions: Sorghum halepense, post-emergence, 480 h, GS 11-33, 20 DAT, read-out: % activity (solo application)
Method: as §1, §2, §3, §4, §5, §6, §7, §8, §9, §10, §11, §12

Abutilon theophrasti = assay: greenhouse post-emergence herbicidal activity, ABUTH; conditions: read-out: % activity (solo application); for activity at 0.5 g/ha: 0.5 gai/ha; for activity at 0.4 g/ha: 0.4 gai/ha; for activity at 0.8 g/ha: 0.8 gai/ha
Method: as §1, §2, §3, §4, §5, §6, §7, §8, §9, §10, §11, §12

Amaranthus tamariscinus = assay: greenhouse post-emergence herbicidal activity, AMATA; conditions: read-out: % activity (solo application); for activity at 0.5 g/ha: 0.5 gai/ha; for activity at 0.2 g/ha: 0.2 gai/ha
Method: as §1, §2, §3, §4, §5, §6, §7, §8, §9, §10, §11, §12

[1] = Setaria faberi, post-emergence, 144 h, GS 12-16, 6 DAT, read-out: % activity (solo application)
[2] = Setaria faberi, post-emergence, 480 h, GS 12-16, 20 DAT, read-out: % activity (solo application)
[3] = 144 h, GS 12-16, 6 DAT, 0.25 gai/ha
[4] = 144 h, GS 12-16, 6 DAT, 0.5 gai/ha
[5] = 168 h, GS 11-33, 7 DAT, 0.2 gai/ha
[6] = 480 h, GS 11-33, 20 DAT, 1.6 gai/ha
[7] = 480 h, GS 12-16, 20 DAT, 0.25 gai/ha
[8] = 480 h, GS 11-33, 20 DAT, 0.2 gai/ha
[9] = 480 h, GS 12-16, 20 DAT, 0.5 gai/ha
[10] = 168 h, GS 11-33, 7 DAT, 1.6 gai/ha
[11] = 168 h, GS 12-16, 7 DAT, 0.25 gai/ha

## CCOC(=O)COc1ccccc1Oc1nc(-n2c(=O)cc(C(F)(F)F)n(C)c2=O)c(F)cc1Cl [(I.3)]
Setaria faberi; GS 12-16, 6 DAT
  % activity (solo application): 60%
Setaria faberi; GS 12-16, 20 DAT
  % activity (solo application): 60%
Setaria faberi; [1]
  activity at […]: 55%
  activity at 0.5 g/ha: 65%
Setaria faberi; Setaria faberi, post-emergence, 168 h, GS 12-16, 7 DAT, read-out: % activity (solo application)
  activity at 0.5 g/ha: 75%
Setaria faberi; Setaria faberi, post-emergence, 480 h, GS 11-33, 20 DAT, 0.2 gai/ha, read-out: % activity (solo application)
  activity at 0.2 g/ha: 15%
Setaria faberi; Setaria faberi, post-emergence, 480 h, GS 11-33, 20 DAT, 0.4 gai/ha, read-out: % activity (solo application)
  activity at 0.4 g/ha: 80%
Setaria faberi; [2]
  activity at […]: 55%
  activity at 0.5 g/ha: 55%
Setaria faberi; Setaria faberi, post-emergence, 504 h, GS 12-16, 21 DAT, read-out: % activity (solo application)
  activity at 0.5 g/ha: 70%
Commenline benghalensis; [3]
  activity at […]: 40%
Commenline benghalensis; [4]
  activity at 0.5 g/ha: 90%
Commenline benghalensis; [5]
  activity at 0.2 g/ha: 20%
Commenline benghalensis; [6]
  activity at […]: 95%
Commenline benghalensis; [7]
  activity at […]: 60%
Setaria viridis; [3]
  activity at […]: 35%
Setaria viridis; 144 h, GS 12-16, 6 DAT
  activity at 0.5 g/ha: 60%
Setaria viridis; 192 h, GS 11-33, 8 DAT
  activity at 0.2 g/ha: 20%
  activity at 0.4 g/ha: 25%
Setaria viridis; 192 h, GS 11-33, 8 DAT, 1.6 gai/ha
  activity at […]: 95%
Setaria viridis; 480 h, GS 11-33, 20 DAT
  activity at 0.2 g/ha: 5%
  activity at 0.4 g/ha: 10%
Setaria viridis; [6]
  activity at […]: 90%
Setaria viridis; [7]
  activity at […]: 30%
Setaria viridis; 480 h, GS 12-16, 20 DAT
  activity at 0.5 g/ha: 85%
Eleusine indica; 168 h, GS 11-33, 7 DAT
  activity at […]: 95%
Eleusine indica; [8]
  activity at 0.2 g/ha: 20%
Eleusine indica; 480 h, GS 11-33, 20 DAT
  activity at […]: 90%
Eleusine indica; [9]
  activity at 0.5 g/ha: 35%
Brachiaria decumbens; 192 h, GS 11-33, 8 DAT
  activity at […]: 50%
Brachiaria decumbens; 480 h, GS 11-33, 20 DAT
  activity at […]: 40%
Kochia scoparia; 168 h, GS 11-33, 7 DAT
  activity at 0.4 g/ha: 60%
  activity at 0.8 g/ha: 75%
Kochia scoparia; [8]
  activity at 0.2 g/ha: 15%
Kochia scoparia; 480 h, GS 11-33, 20 DAT
  activity at 0.4 g/ha: 30%
  activity at 0.8 g/ha: 55%
Kochia scoparia; [6]
  activity at […]: 75%
Kochia scoparia; [7]
  activity at […]: 40%
Echinocloa crus-galli; [3]
  activity at […]: 40%
Echinocloa crus-galli; [4]
  activity at 0.5 g/ha: 55%
Echinocloa crus-galli; [10]
  activity at […]: 60%
Echinocloa crus-galli; [6]
  activity at […]: 60%
Avena fatua; [3]
  activity at […]: 35%
Avena fatua; 168 h, GS 11-33, 7 DAT
  activity at 0.8 g/ha: 25%
Avena fatua; [10]
  activity at […]: 40%
Avena fatua; [11]
  activity at […]: 35%
Avena fatua; 168 h, GS 12-16, 7 DAT
  activity at 0.5 g/ha: 40%
Avena fatua; [8]
  activity at 0.2 g/ha: 10%
Avena fatua; 480 h, GS 11-33, 20 DAT
  activity at 0.8 g/ha: 15%
Avena fatua; [6]
  activity at […]: 30%
Avena fatua; [7]
  activity at […]: 10%
Avena fatua; 480 h, GS 12-16, 20 DAT
  activity at 0.5 g/ha: 25%
Lolium multiflorum; 168 h, GS 11-33, 7 DAT
  activity at […]: 30%
Lolium multiflorum; [8]
  activity at 0.2 g/ha: 5%
Lolium multiflorum; 480 h, GS 11-33, 20 DAT, 0.8 gai/ha
  activity at 0.8 g/ha: 10%
Lolium multiflorum; 480 h, GS 11-33, 20 DAT
  activity at […]: 10%
Digitaria sanguinales; 192 h, GS 11-33, 8 DAT, 0.4 gai/ha
  activity at 0.4 g/ha: 30%
Digitaria sanguinales; [8]
  activity at 0.2 g/ha: 10%
Digitaria sanguinales; [9]
  activity at 0.5 g/ha: 35%
Sorghum halepense; 0.2 gai/ha
  activity at 0.2 g/ha: 10%
Sorghum halepense; 0.4 gai/ha
  activity at 0.4 g/ha: 20%
Sorghum halepense; 0.8 gai/ha
  activity at 0.8 g/ha: 30%
Sorghum halepense; 1.6 gai/ha
  activity at […]: 30%
Abutilon theophrasti; 144 h, GS 12-16, 6 DAT
  activity at 0.5 g/ha: 95%
Abutilon theophrasti; [5]
  activity at 0.2 g/ha: 80%
Abutilon theophrasti; 168 h, GS 11-33, 7 DAT
  activity at 0.4 g/ha: 85%
  activity at 0.8 g/ha: 85%
Abutilon theophrasti; [10]
  activity at […]: 90%
Abutilon theophrasti; [11]
  activity at […]: 85%
Abutilon theophrasti; 168 h, GS 12-16, 7 DAT
  activity at 0.5 g/ha: 90%
Abutilon theophrasti; 480 h, GS 11-33, 20 DAT
  activity at 0.4 g/ha: 80%
  activity at 0.8 g/ha: 80%
Abutilon theophrasti; [6]
  activity at […]: 90%
Abutilon theophrasti; 504 h, GS 12-16, 21 DAT, 0.25 gai/ha
  activity at […]: 85%
Amaranthus tamariscinus; 144 h, GS 12-16, 6 DAT
  activity at 0.5 g/ha: 90%
Amaranthus tamariscinus; 168 h, GS 11-33, 7 DAT
  activity at 0.2 g/ha: 70%
Amaranthus tamariscinus; 480 h, GS 11-33, 20 DAT
  activity at 0.2 g/ha: 40%
Amaranthus tamariscinus; [6]
  activity at […]: 90%
Amaranthus tamariscinus; [7]
  activity at […]: 70%
Amaranthus tamariscinus; 480 h, GS 12-16, 20 DAT
  activity at 0.5 g/ha: 85%
